Source: patent US20250059182A1, “SOS1 INHIBITORS” (Mirati Therapeutics, Inc., priority 2021, published 2025)
Where a name gives a salt, the structure may show the parent alone. Read-outs that look alike come from different tables or passages of the source.

Assays:
[1] = biological target: T1, recombinant human SOS1 polypeptide (amino acids 560-1049) (Homo sapiens, UniProt Q07889); assay: HTRF displacement assay: inhibition of labeled tracer binding to SOS1
T1 construct: corresponding to amino acids 560-1049, expressed in E. Coli; made in house; host or cells: E. coli
T1 sequence (Q07889 560-1049): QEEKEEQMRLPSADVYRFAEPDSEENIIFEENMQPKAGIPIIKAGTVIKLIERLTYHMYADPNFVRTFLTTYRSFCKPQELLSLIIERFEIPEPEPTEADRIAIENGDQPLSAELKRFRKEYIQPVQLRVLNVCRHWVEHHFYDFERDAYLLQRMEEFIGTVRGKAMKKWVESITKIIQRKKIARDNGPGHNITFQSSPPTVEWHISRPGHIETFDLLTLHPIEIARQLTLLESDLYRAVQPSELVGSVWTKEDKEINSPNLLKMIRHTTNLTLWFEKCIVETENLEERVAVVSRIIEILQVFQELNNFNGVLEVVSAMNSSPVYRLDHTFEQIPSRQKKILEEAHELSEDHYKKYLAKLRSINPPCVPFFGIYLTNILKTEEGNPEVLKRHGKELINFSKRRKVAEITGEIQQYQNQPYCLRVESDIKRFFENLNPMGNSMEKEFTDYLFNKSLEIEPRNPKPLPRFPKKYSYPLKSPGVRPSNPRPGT

pERK in MKN1 cells = assay: pERK inhibition, In-Cell Western (LI-COR Odyssey), MKN1 cells; format: cell-based; details: Homo sapiens
Summary of the method: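 IC50 was fitted from % pERK inhibition, calculated as the GAPDH-normalised pERK signal of each well divided by the vehicle mean. Signal was imaged at 700 and 800 nm after fixation, methanol permeabilisation and dual antibody staining. Before fixation, MKN1 cells had received compound for about 0.5–1 h at 37 °C, top concentration 10 µM, nine 3-fold dilutions.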

[2] = Table A, Morrison equation for competitive binding
[3] = MKN-1, Table B, MKN1 or H358 cells (table does not say which), 0.5-1 hour incubation, read-out: IC50 (nM), pERK inhibition
[4] = Table A1, Morrison equation for competitive binding
[5] = MKN-1, Table B1, MKN1 or H358 cells (table does not say which), 0.5-1 hour incubation, read-out: IC50 (nM), pERK inhibition

SMILES | Ki [1, 2] | IC50 (pERK in MKN1 cells; [3]) | Ki [1, 4] | IC50 (pERK in MKN1 cells; [5]) | IC50 (pERK in MKN1 cells; MKN-1, read-out: IC50 (nM), pERK inhibition)
Cc1nnc(N[C@H](C)c2cccc(C(F)(F)F)c2F)c2cc(N3CCOCC3)c(C#N)cc12 [Example 6-18, (R)-1-((1-(2-fluoro-3-(trifluoromethyl)phenyl)ethyl)amino)-4-methyl-7-morpholinophthalazine-6-carbonitrile] | 7.06 nM | 311 nM |  |  | 
Cc1c(C#N)cccc1[C@@H](C)Nc1nnc(C)c2cc(C#N)c(N3CCN(C)CC3)cc12 [Example 6-19, (R)-1-((1-(3-cyano-2-methylphenyl)ethyl)amino)-4-methyl-7-(4-methylpiperazin-1-yl)phthalazine-6-carbonitrile] | 2.94 nM | 222 nM |  |  | 
Cc1nnc(N[C@H](C)c2cccc(C(F)(F)F)c2F)c2cc(N3C[C@H]4C[C@@H]3CO4)c(C#N)cc12 [Example 6-20, 7-((1R,4R)-2-oxa-5-azabicyclo[2.2.1]heptan-5-yl)-1-(((R)-1-(2-fluoro-3-(trifluoromethyl)phenyl)ethyl)amino)-4-methylphthalazine-6-carbonitrile] | 1.4 nM | 218 nM |  |  | 
Cc1c(C#N)cccc1[C@@H](C)Nc1nnc(C)c2cc(Cl)c(N3CCN(C)CC3)cc12 [Example 7-1, (R)-3-(1-((6-chloro-4-methyl-7-(4-methylpiperazin-1-yl)phthalazin-1-yl)amino)ethyl)-2-methylbenzonitrile] | 1.79 nM | 150 nM |  |  | 
Cc1c(C#N)cccc1[C@@H](C)Nc1nnc(C)c2cnc(N3CCCCC3)cc12 [Example P-3, (R)-2-methyl-3-(1-((4-methyl-7-(piperidin-1-yl)pyrido[3,4-d]pyridazin-1-yl)amino)ethyl)benzonitrile] |  |  | 2.22 nM | 302 nM | 
COC1(C)CCN(c2cc3c(N[C@H](C)c4cccc(C#N)c4C)nnc(C)c3cn2)CC1 [Example P-9, (R)-3-(1-((7-(4-methoxy-4-methylpiperidin-1-yl)-4-methylpyrido[3,4-d]pyridazin-1-yl)amino)ethyl)-2-methylbenzonitrile, formic acid salt] |  |  | 0.989 nM |  | 90.2 nM
COC1CCN(c2cc3c(N[C@H](C)c4cccc(C#N)c4C)nnc(C)c3cn2)CC1 [Example P-15, (R)-3-(1-((7-(4-methoxypiperidin-1-yl)-4-methylpyrido[3,4-d]pyridazin-1-yl)amino)ethyl)-2-methylbenzonitrile] |  |  | 1.12 nM | 66.1 nM | 
Cc1c(C#N)cccc1[C@@H](C)Nc1nnc(C)c2cnc(N3CCn4cnnc4C3)cc12 [Example P-21, (R)-3-(1-((7-(5,6-dihydro-[1,2,4]triazolo[4,3-a]pyrazin-7(8H)-yl)-4-methylpyrido[3,4-d]pyridazin-1-yl)amino)ethyl)-2-methylbenzonitrile] |  |  | 2.17 nM | 2560 nM | 
Cc1c(C#N)cccc1[C@@H](C)Nc1nnc(C)c2cnc(N3CCn4c(C)nnc4C3)cc12 [Example P-27, (R)-2-methyl-3-(1-((4-methyl-7-(3-methyl-5,6-dihydro-[1,2,4]triazolo[4,3-a]pyrazin-7(8H)-yl)pyrido[3,4-d]pyridazin-1-yl)amino)ethyl)benzonitrile] |  |  | 1.26 nM | > 10000 nM | 
Cc1c(C#N)cccc1[C@@H](C)Nc1nnc(C)c2cnc(N3CCn4c(nnc4C(F)(F)F)C3)cc12 [Example P-33, (R)-2-methyl-3-(1-((4-methyl-7-(3-(trifluoromethyl)-5,6-dihydro-[1,2,4]triazolo[4,3-a]pyrazin-7(8H)-yl)pyrido[3,4-d]pyridazin-1-yl)amino)ethyl)benzonitrile] |  |  | 6.92 nM | 121 nM | 
Cc1c(C#N)cccc1[C@@H](C)Nc1nnc(C)c2cnc(N3CCc4c(cnn4C)C3)cc12 [Example P-39, (R)-2-methyl-3-(1-((4-methyl-7-(1-methyl-1,4,6,7-tetrahydro-5H-pyrazolo[4,3-c]pyridin-5-yl)pyrido[3,4-d]pyridazin-1-yl)amino)ethyl)benzonitrile] |  |  | 1.1 nM | 96.9 nM | 
